Like-named read-outs stand apart in the source and are kept apart here.
Assays:
SARS-CoV-2 3CL^pro = SARS-CoV-2 3CL^pro (Severe acute respiratory syndrome coronavirus 2, UniProt P0DTD1); test: SARS-CoV-2 3CLpro fluorogenic; format: biochemical; settings: for inhibition of 3CL^pro in screen: 10 μM drug, hit of 1,068 or 2,701 FDA-approved drug collection
COVID-19 patients = settings: cited from earlier work
SARS-CoV-2 = settings: cited from earlier work
[1] = test system: SARS-CoV-2 in human lung cells; settings: in vitro assay; cited from earlier work
SARS-CoV-2 PL^pro = SARS-CoV-2 PL^pro (Severe acute respiratory syndrome coronavirus 2, UniProt P0DTD1); test: SARS-CoV-2 PLpro fluorogenic inhibition assay: screening at 10 μM and IC50; format: biochemical
SARS-CoV-2 virus = format: cell-based; settings: for selectivity index (SI): derived from CC50 and EC50
SARS-CoV = settings: read-out: EC50 against SARS-CoV; cited from earlier work
[2] = read-out: EC50 against SARS-CoV-2 in vitro

CC(C)(C)NC(=O)N[C@H](C(=O)N1C[C@H]2[C@@H]([C@H]1C(=O)NC(CC1CCC1)C(=O)C(N)=O)C2(C)C)C(C)(C)C (stereo partly drawn) [Boceprevir]
inhibition of 3CL^pro in screen (SARS-CoV-2 3CL^pro): active at 10 μM

O=c1c2ccccc2[se]n1-c1ccccc1 [Ebselen]
inhibition of 3CL^pro in screen (SARS-CoV-2 3CL^pro): active at 10 μM

CCC(CC)COC(=O)[C@H](C)N[P@](=O)(OC[C@H]1O[C@@](C#N)(c2ccc3c(N)ncnn23)[C@H](O)[C@@H]1O)Oc1ccccc1 [Remdesivir]
benefit in clinical trials on COVID-19 patients (COVID-19 patients): 68%
EC50 (SARS-CoV-2; read-out: EC50, SARS-CoV-2 viral replication): 0.7 µM

CCN(CC)CCCC(C)Nc1ccnc2cc(Cl)ccc12 (stereo not drawn) [chloroquine]
inhibitory effects on SARS-CoV-2 in human lung cells [1]: no inhibitory effects
EC50 (SARS-CoV-2; [2]): 1.13 µM

NC(=O)c1nc(F)c[nH]c1=O [favipiravir]
inhibition of SARS-CoV-2 replication (SARS-CoV-2): weak inhibition

CCN(CCO)CCCC(C)Nc1ccnc2cc(Cl)ccc12 (stereo not drawn) [hydroxychloroquine]
clinical benefit against COVID-19 (COVID-19 patients): no clinical benefit
inhibition of SARS-CoV-2 in vitro (SARS-CoV-2): shown to inhibit SARS-CoV-2 in vitro

N[C@@H](Cc1cc(I)c(Oc2cc(I)c(O)c(I)c2)c(I)c1)C(=O)O [levothyroxine]
IC50 (SARS-CoV-2 PL^pro): 15.3 ± 4.2 µM
IC50 (SARS-CoV-2 3CL^pro): 19.2 ± 1.2 µM
inhibition of virus, postentry treatment (SARS-CoV-2 virus): postentry treatment could not inhibit the virus
reduction of viral plaques, full-time treatment (SARS-CoV-2 virus): effective in reducing viral plaques
selectivity index (SI) (SARS-CoV-2 virus): > 14.3

CN(C)C(=O)C(CCN1CCC(O)(c2ccc(Cl)cc2)CC1)(c1ccccc1)c1ccccc1 [loperamide]
inhibition of virus, postentry treatment (SARS-CoV-2 virus): postentry treatment could still inhibit the virus
reduction of viral plaques, full-time treatment (SARS-CoV-2 virus): effective in reducing viral plaques
antiviral activity, entry step (SARS-CoV-2 virus; entry treatment): not the entry step

COC(=O)C1=C(C)NC(C)=C(C(=O)OCCN2CCN(C(c3ccccc3)c3ccccc3)CC2)C1c1cccc([N+](=O)[O-])c1 (stereo not drawn) [manidipine-2HCl]
IC50 (SARS-CoV-2 PL^pro): 14.2 ± 1.7 µM
IC50 (SARS-CoV-2 3CL^pro): 10.4 ± 1.6 µM
inhibition of virus, postentry treatment (SARS-CoV-2 virus): postentry treatment could still inhibit the virus
reduction of viral plaques, full-time treatment (SARS-CoV-2 virus): effective in reducing viral plaques
selectivity index (SI) (SARS-CoV-2 virus): > 6.9

CNCCCC12CCC(c3ccccc31)c1ccccc12 [maprotiline]
antiviral activity, entry step (SARS-CoV-2 virus): not the entry step
inhibition of virus, postentry treatment (SARS-CoV-2 virus): postentry treatment could still inhibit the virus
reduction of viral plaques, full-time treatment (SARS-CoV-2 virus): effective in reducing viral plaques

Nc1nc2c(ncn2CCC(CO)CO)c(=O)[nH]1 [penciclovir]
inhibition of SARS-CoV-2 replication (SARS-CoV-2): weak inhibition

COC(=O)[C@H]1[C@H]2C[C@@H]3c4[nH]c5cc(OC)ccc5c4CCN3C[C@H]2C[C@@H](OC(=O)c2cc(OC)c(OC)c(OC)c2)[C@@H]1OC [reserpine]
IC50 (SARS-CoV-2 PL^pro): 5.7 ± 0.7 µM
EC50 (SARS-CoV): 3.4 µM
reduction of viral plaques, full-time treatment (SARS-CoV-2 virus): effective in reducing viral plaques
selectivity index (SI) (SARS-CoV-2 virus): > 15.2

NC(=O)c1ncn([C@@H]2O[C@H](CO)[C@@H](O)[C@H]2O)n1 [ribavirin]
inhibition of SARS-CoV-2 replication (SARS-CoV-2): weak inhibition

Cc1ccc(C(=O)c2cc(O)c(O)c([N+](=O)[O-])c2)cc1 [tolcapone]
IC50 (SARS-CoV-2 3CL^pro): 7.9 µM
inhibition of 3CL^pro in screen (SARS-CoV-2 3CL^pro): active at 10 μM
antiviral activity (figure not shown) (SARS-CoV-2 virus; tolcapone): weak antiviral activity only at 50 μM

ivermectin
EC50 (SARS-CoV-2; [2]): 2.5 µM

lopinavir/ritonavir
inhibition of SARS-CoV-2 replication (SARS-CoV-2): weak inhibition

Reference: paper PMC8097444 (Antimicrobial Agents and Chemotherapy, 2021)
